Reference: ChEMBL document CHEMBL3286296, “Design and synthesis of phenylisoxazole derivatives as novel human acrosin inhibitors” (Bioorg Med Chem Lett, 2014)

Assays:
Acrosin [1] = target: T1, Acrosin (Homo sapiens, UniProt P10323); test: Inhibition of human acrosin using N-alpha-benzoyl-L-arginine p-nitroanilide as substrate after 3 hrs by spectrophotometry
Acrosin [2] = target: T1, Acrosin; test: Ratio of ISO-1 IC50 to compound IC50 for human acrosin using N-alpha-benzoyl-L-arginine p-nitroanilide as substrate after 3 hrs by spectrophotometry
[3] = Inhibition of pig trypsin; parameters: species or system Sus scrofa

T1 sequence (P10323 20-42 limits assumed): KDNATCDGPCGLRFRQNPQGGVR
T1 sequence (P10323 43-343 limits assumed): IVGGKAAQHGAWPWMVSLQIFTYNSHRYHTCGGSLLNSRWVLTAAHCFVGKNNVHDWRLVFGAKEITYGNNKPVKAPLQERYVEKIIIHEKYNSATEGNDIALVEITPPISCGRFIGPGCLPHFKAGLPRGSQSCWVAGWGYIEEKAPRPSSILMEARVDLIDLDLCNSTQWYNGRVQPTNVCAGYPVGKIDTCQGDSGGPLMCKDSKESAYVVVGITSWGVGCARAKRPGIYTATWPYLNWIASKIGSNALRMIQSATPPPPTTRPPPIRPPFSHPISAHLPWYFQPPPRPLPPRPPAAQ

| Compound | IC50 (Acrosin [1]) [µM] | Ratio IC50 (Acrosin [2]) | IC50 [3] [mM] |
| --- | --- | --- | --- |
| CCOC(=O)c1cc(-c2ccc(NC(=O)c3ccccc3)cc2)on1 | 460 | – | – |
| N=C(N)Nc1ccc(-c2cc(C(=O)Nc3ccc(Cl)cc3)no2)cc1 | 26.8 | – | – |
| COc1ccc(OC)c(NC(=O)c2cc(-c3ccc(NC(=N)N)cc3)on2)c1 | 2.3 | – | – |
| Cc1cc(C)cc(NC(=O)c2cc(-c3ccc(NC(=N)N)cc3)on2)c1 | 12.1 | – | – |
| Cc1cccc(NC(=O)c2cc(-c3ccc(NC(=N)N)cc3)on2)c1 | 9.4 | – | – |
| COc1ccccc1NC(=O)c1cc(-c2ccc(NC(=N)N)cc2)on1 | 8.4 | – | – |
| N=C(N)Nc1ccc(-c2cc(C(=O)Nc3ccc(F)cc3)no2)cc1 | 20.5 | – | – |
| COc1cccc(NC(=O)c2cc(-c3ccc(NC(=N)N)cc3)on2)c1 | 6.6 | – | – |
| Cc1cccc(C)c1NC(=O)c1cc(-c2ccc(NC(=N)N)cc2)on1 | 5.7 | – | – |
| Cc1ccc(NC(=O)c2cc(-c3ccc(NC(=N)N)cc3)on2)cc1 | 10.1 | – | – |
| CC(C)(C)c1ccc(NC(=O)c2cc(-c3ccc(NC(=N)N)cc3)on2)cc1 | 7.8 | – | – |
| CCOC(=O)c1cc(-c2ccc(NC(=O)c3ccc(Cl)c(Cl)c3)cc2)on1 | 240 | – | – |
| N=C(N)Nc1ccc(-c2cc(C(=O)Nc3ccccc3Br)no2)cc1 | 27.9 | – | – |
| N=C(N)Nc1ccc(-c2cc(C(=O)Nc3cccc4ccccc34)no2)cc1 | 29.9 | – | – |
| CCOC(=O)c1cc(-c2ccc(NC(=O)c3ccccc3Cl)cc2)on1 | 60 | 6 | – |
| CC(CO)NC(=O)c1cc(-c2ccc(NC(=N)N)cc2)on1 (configuration not stated) | > 100 | – | – |
| Cc1ccccc1NC(=O)c1cc(-c2ccc(NC(=N)N)cc2)on1 | 14.4 | – | – |
| CC(C)NC(=O)c1cc(-c2ccc(NC(=N)N)cc2)on1 | > 100 | – | – |
| N#Cc1ccc(NC(=O)c2cc(-c3ccc(NC(=N)N)cc3)on2)cc1 | 23.9 | – | – |
| Cc1ccnc(NC(=O)c2cc(-c3ccc(NC(=N)N)cc3)on2)c1 | 21.4 | – | – |
| N=C(N)Nc1ccc(-c2cc(C(=O)Nc3ccccc3)no2)cc1 | 24.6 | – | – |
| CCOC(=O)c1cc(-c2ccc(NC(=O)c3ccc(Cl)cc3)cc2)on1 | 380 | – | – |
| N=C(N)Nc1ccc(-c2cc(C(=O)Nc3cccc(Cl)c3)no2)cc1 | 25.4 | – | – |
| CCOC(=O)c1ccc(NC(=O)c2cc(-c3ccc(NC(=N)N)cc3)on2)cc1 | 9.3 | – | – |
| Cc1cccc(NC(=O)c2cc(-c3ccc(NC(=N)N)cc3)on2)c1C | 11.5 | – | – |
| COc1ccc(NC(=O)c2cc(-c3ccc(NC(=N)N)cc3)on2)c(OC)c1 | 1.4 | – | 4.2 |
| CCOc1ccc(NC(=O)c2cc(-c3ccc(NC(=N)N)cc3)on2)cc1 | 6.4 | – | – |
| CCOC(=O)c1cc(-c2ccc(NC(=O)c3ccc(F)cc3)cc2)on1 | 140 | – | – |
| N=C(N)Nc1ccc(-c2cc(C(=O)Nc3cccc(Br)c3)no2)cc1 | 14.4 | – | – |
| N=C(N)Nc1ccc(-c2cc(C(=O)Nc3ccc(C(F)(F)F)cc3)no2)cc1 | 20.3 | – | – |
